Assay results as given in US20240376108A1, “SALT AND CRYSTAL FORM OF PYRAZOLE-CONTAINING POLYCYCLIC DERIVATIVE, AND PREPARATION METHOD THEREFOR AND USE THEREOF” (Shanghai Hansoh Biomedical Co., Ltd., priority 2021, published 2024).

What was measured:
[1] = Hygroscopicity experiment (DVS); type: physicochemical
In short: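 Hygroscopic weight gain (%) measured after each salt's crystal form reached dynamic equilibrium with water vapour at various relative humidities, by dynamic vapour sorption.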

[2] = Pharmacokinetic assay of the salt forms in rats (10 mg/kg); type: in vivo; settings: SD rats
Experimental: 2.3 Pharmacokinetic assay of the methanesulfonate in rats
2.3.1. Study objective: SD rats were used as test animals. The pharmacokinetic behavior of various salt forms of 2-(2-cyano-5-oxo-8-(trifluoromethyl)pyrazolo[1,5-a]pyrido[3,2-e]pyrimidin-4(5H)-yl)-N-(5-fluoropyridin-2-yl)acetamide was studied in rat body (plasma) by orally administration at a dose of 10 mg/kg.
2.3.2.4 Administration: After an overnight fast, male SD rats (3 rats per group) were administered p.o. with the test compound at a dose of 10 mg/kg and a volume of 10 mL/kg.
2.3.2.5 Sample collection: 0.2 mL of blood was taken from the jugular vein of the rat before administration and at 0, 0.5, 1, 2, 4, 6, 8 and 24 hours after administration. The samples were stored in EDTA-K2 tubes, and centrifuged for 6 minutes at 4° C., 6000 rpm to separate the plasma. The plasma samples were stored at −80° C.
1) 160 μL of acetonitrile was added to 40 μL of the plasma sample for precipitation, and then the mixture was centrifuged at 3500×g for 5 to 20 minutes.
2) After the above process, 100 μL of the supernatant was taken to analyze the concentration of the test compound by LC/MS/MS.
2.3.2.7 Liquid chromatography analysis • Liquid chromatography condition: Shimadzu LC-20AD pump • Mass spectrometry condition: AB Sciex API 4000 mass spectrometer • Chromatographic column: phenomenex Gemiu 5 um C18 50×4.6 mm • Mobile phase: Eluent A was 0.1% formic acid in water, and Eluent B was acetonitrile • Flow rate: 0.8 mL/min • Elution time: 0-4.0 minutes, the eluent is as follows:
The main parameters of pharmacokinetics were calculated by WinNonlin 8.2.

[3] = Thermodynamic stability experiment (polymorphism screening of the methanesulfonate); type: physicochemical; settings: pulped in solvents at 35° C. for 24 hours, XRPD
Experimental: 6.1 Polymorphism screening of the methanesulfonate of compound 2-(2-cyano-5-oxo-8-(trifluoromethyl)pyrazolo[1,5-a]pyrido[3,2-e]pyrimidin-4(5H)-yl)-N-(5-fluoropyridin-2-yl)acetamide
The mixture was magnetically pulped in a metal bath at 35° C. for 24 hours, and centrifuged. The resulting solid was dried, and the XRPD thereof was determined.

[4] = Solubility experiment in different media; type: physicochemical; settings: for solubility at 24 h: thermodynamic from solid
Experimental: The vials were placed on a spin mixer overnight at room temperature. After 24 hours, the sample solution was filtered through a 0.45 μm mixed aqueous fiber membrane. The content of the compound in the filtrate was determined by HPLC. [table]

[5] = Solid stability experiment (high temperature, high humidity, high temperature and high humidity); type: physicochemical
Experimental: 4.1.1 Experimental objective: To investigate the physical and chemical stability of the crystal form of the compound under the conditions of high temperature, high humidity, as well as high temperature and high humidity, so as to provide a basis for crystal form screening and storage of the crystal form of the compound.
The content of the salt was determined by HPLC using the external standard method, and the change of relevant substances was calculated by using the chromatographic peak area normalization method.

[6] = Cycle 1, target relative humidity 0.0%, 25° C.
[7] = Cycle 1, target relative humidity 10.0%, 25° C.
[8] = Cycle 1, target relative humidity 20.0%, 25° C.
[9] = Cycle 1, target relative humidity 30.0%, 25° C.
[10] = Cycle 1, target relative humidity 40.0%, 25° C.
[11] = Cycle 1, target relative humidity 50.0%, 25° C.
[12] = Cycle 1, target relative humidity 60.0%, 25° C.
[13] = Cycle 1, target relative humidity 70.0%, 25° C.
[14] = Cycle 1, target relative humidity 80.0%, 25° C.
[15] = Cycle 1, target relative humidity 90.0%, 25° C.
[16] = Cycle 1, target relative humidity 95.0%, 25° C.
[17] = Cycle 2, target relative humidity 0.0%, 25° C.
[18] = Cycle 2, target relative humidity 10.0%, 25° C.
[19] = Cycle 2, target relative humidity 20.0%, 25° C.
[20] = Cycle 2, target relative humidity 30.0%, 25° C.
[21] = Cycle 2, target relative humidity 40.0%, 25° C.
[22] = Cycle 2, target relative humidity 50.0%, 25° C.
[23] = Cycle 2, target relative humidity 60.0%, 25° C.
[24] = Cycle 2, target relative humidity 70.0%, 25° C.
[25] = Cycle 2, target relative humidity 80.0%, 25° C.
[26] = Cycle 2, target relative humidity 90.0%, 25° C.
[27] = Cycle 2, target relative humidity 95.0%, 25° C.
[28] = High humidity (92.5% RH), Day 7
[29] = High humidity (92.5% RH), Day 14
[30] = High temperature (60° C.), Day 7
[31] = High temperature (60° C.), Day 14
[32] = High temperature and high humidity (50° C.&75% RH), Day 7
[33] = High temperature and high humidity (50° C.&75% RH), Day 14

CS(=O)(=O)O.N#Cc1cc2n(CC(=O)Nc3ccc(F)cn3)c(=O)c3ccc(C(F)(F)F)nc3n2n1 [Methanesulfonate (crystal form A), 2-(2-cyano-5-oxo-8-(trifluoromethyl)pyrazolo[1,5-a]pyrido[3,2-e]pyrimidin-4(5H)-yl)-N-(5-fluoropyridin-2-yl)acetamide methanesulfonate]
hygroscopicity (Chinese Pharmacopoeia description) ([1]; 25° C., relative humidity 80%): slightly hygroscopic
hygroscopic weight gain ([1]; 80% relative humidity): ≤ 0.5%
% percentage of mass change, Desorption [1, 6]: −0.029%
% percentage of mass change, Sorption [1, 6]: 0.000%
% percentage of mass change, Desorption [1, 7]: 0.030%
% percentage of mass change, Sorption [1, 7]: 0.051%
% percentage of mass change, Desorption [1, 8]: 0.082%
% percentage of mass change, Sorption [1, 8]: 0.096%
% percentage of mass change, Desorption [1, 9]: 0.133%
% percentage of mass change, Sorption [1, 9]: 0.138%
% percentage of mass change, Desorption [1, 10]: 0.190%
% percentage of mass change, Sorption [1, 10]: 0.179%
% percentage of mass change, Desorption [1, 11]: 0.253%
% percentage of mass change, Sorption [1, 11]: 0.222%
% percentage of mass change, Desorption [1, 12]: 0.320%
% percentage of mass change, Sorption [1, 12]: 0.272%
% percentage of mass change, Desorption [1, 13]: 0.395%
% percentage of mass change, Sorption [1, 13]: 0.340%
% percentage of mass change, Desorption [1, 14]: 0.502%
% percentage of mass change, Sorption [1, 14]: 0.446%
% percentage of mass change, Desorption [1, 15]: 0.760%
% percentage of mass change, Sorption [1, 15]: 0.700%
% percentage of mass change, Desorption [1, 16]: 1.109%
% percentage of mass change, Sorption [1, 16]: 1.109%
% percentage of mass change, Desorption [1, 17]: −0.046%
% percentage of mass change, Sorption [1, 17]: −0.029%
% percentage of mass change, Desorption [1, 18]: 0.014%
% percentage of mass change, Sorption [1, 18]: 0.024%
% percentage of mass change, Desorption [1, 19]: 0.067%
% percentage of mass change, Sorption [1, 19]: 0.073%
% percentage of mass change, Desorption [1, 20]: 0.118%
% percentage of mass change, Sorption [1, 20]: 0.118%
% percentage of mass change, Desorption [1, 21]: 0.177%
% percentage of mass change, Sorption [1, 21]: 0.162%
% percentage of mass change, Desorption [1, 22]: 0.241%
% percentage of mass change, Sorption [1, 22]: 0.209%
% percentage of mass change, Desorption [1, 23]: 0.305%
% percentage of mass change, Sorption [1, 23]: 0.263%
% percentage of mass change, Desorption [1, 24]: 0.378%
% percentage of mass change, Sorption [1, 24]: 0.331%
% percentage of mass change, Desorption [1, 25]: 0.480%
% percentage of mass change, Sorption [1, 25]: 0.433%
% percentage of mass change, Desorption [1, 26]: 0.734%
% percentage of mass change, Sorption [1, 26]: 0.675%
% percentage of mass change, Desorption [1, 27]: 1.076%
% percentage of mass change, Sorption [1, 27]: 1.076%
exposure AUC and maximum plasma concentration Cmax compared with the free base ([2]; 10 mg/kg): superior
AUC(0-t) ([2]; male, rat, po, p.o. 10 mg/kg, plasma, vehicle 0.5% HPMC, read-out: Area under curve AUC0-t): 25800 ng·h/mL
MRT inf ([2]; male, rat, po, p.o. 10 mg/kg, plasma, vehicle 0.5% HPMC, read-out: Average residence time MRT0-∞): 4.8 h
half-life ([2]; male, rat, po, p.o. 10 mg/kg, plasma, vehicle 0.5% HPMC, read-out: Half life t1/2 (converted)): 2.7 h
Tmax ([2]; male, rat, po, p.o. 10 mg/kg, plasma, vehicle 0.5% HPMC, read-out: Peak time tmax): 4 h
Cmax ([2]; male, rat, po, p.o. 10 mg/kg, plasma, vehicle 0.5% HPMC, read-out: Plasma concentration Cmax): 3320 ng/mL
thermodynamic stability of the crystal form [3]: thermodynamically stable crystal form
solubility at 24 h ([4]; aqueous buffer, USP Buffer pH 3, room temperature): 4.3 µg/mL
solubility at 24 h ([4]; aqueous buffer, USP Buffer pH 4, room temperature): 3.6 µg/mL
solubility at 24 h ([4]; aqueous buffer, USP Buffer pH 5, room temperature): 3 µg/mL
solubility at 24 h ([4]; aqueous buffer, USP Buffer pH 6, room temperature): 2.4 µg/mL
solubility at 24 h ([4]; aqueous buffer, USP Buffer pH 7, room temperature): 2.2 µg/mL
solubility at 24 h ([4]; aqueous buffer, USP Buffer pH 8, room temperature): 1.8 µg/mL
solubility at 24 h ([4]; fassgf or other biorelevant, FaSSGF, room temperature): 3.3 µg/mL
solubility at 24 h ([4]; pure water, water, H2O, room temperature): 1.9 µg/mL
solubility in the corresponding media compared with crystal form II of the free base ([4]; room temperature, 24 hours, buffers, FaSSGF, FaSSIF, FeSSIF, water): increased by more than four times
solubility at 24 h ([4]; simulated gastric fluid, USP Buffer pH 1, room temperature): 2.3 µg/mL
solubility at 24 h ([4]; simulated gastric fluid, USP Buffer pH 2, room temperature): 2.3 µg/mL
solubility at 24 h ([4]; FaSSIF, room temperature): 7.8 µg/mL
solubility at 24 h ([4]; FeSSIF, room temperature): 11.3 µg/mL
solid stability under high temperature and high humidity ([5]; 50° C.&75% RH, 7 and 14 days): stable
solid stability under high temperature ([5]; 60° C., 7 and 14 days): stable
solid stability under high humidity ([5]; 92.5% RH, 7 and 14 days): stable
% increase of total impurities [5, 28]: <0.1%
% maximum increase of single impurity [5, 28]: <0.1%
% increase of total impurities [5, 29]: <0.1%
% maximum increase of single impurity [5, 29]: <0.1%
% increase of total impurities [5, 30]: <0.2%
% maximum increase of single impurity [5, 30]: <0.1%
% increase of total impurities [5, 31]: <0.1%
% maximum increase of single impurity [5, 31]: <0.1%
% increase of total impurities [5, 32]: <0.1%
% maximum increase of single impurity [5, 32]: <0.1%
% increase of total impurities [5, 33]: <0.1%
% maximum increase of single impurity [5, 33]: <0.1%
